Values belong to the compound of their own block, whether it stands above or below them.
Assays:
[1] = test system: RAW264.7 mouse macrophages; experiment: Determination of NO generation induced by LPS; format: cell-based; settings: 10 μM, 1 μg/mL LPS, 24 hours, RAW264.7 (FIG. 2)
Description: The results are expressed as the multiple of the NO content in the cell culture supernatant of the administration group (10 μM) as compared with that in the cell culture supernatant of the control group (DMSO group), in which compared with the control group, *P<0.05, **P<0.01, ***P<0.001.
NO is a reactive nitrogen species (RNS) and an important gas signal molecule. Macrophages could convert arginine into NO which participated in the body's inflammatory response. Therefore, determination of inhibitory activity of a drug on NO generation was one of the classic methods to evaluate drug's anti-inflammatory ability. RAW264.7 cells at exponential growth phase were inoculated into a 96-well plate at 1×10^4 cells/200 μL. well of medium. After adherence, the medium was discarded, and the cells were subjected to drug treatments. Normal group (serum-free medium), LPS model group (serum-free medium containing 1 μg/mL LPS), LPS+drug group (serum-free medium containing 1 μg/mL LPS, 10 μM gemfibrozil or the compound of the present application) were established, and 3 repeated wells were set for each group. After 24 hours incubation in incubator, cell supernatant of each well was collected and assay was performed according to the instructions of NO determination kit (Nanjing Jiancheng). The absorbance value of each well at wavelength of 540 nm was read and NO content was calculated.

PPARγ = PPARγ mRNA expression by real-time quantitative PCR in HepG2; format: cell-based, human; settings: 1 μM, 6 hours, HepG2 (FIG. 5B)
Excerpt: Peroxisome proliferation factor activated receptor (PPAR) is an important nuclear receptor that regulates glycolipid metabolism, including three subtypes: α, β/δ and γ. Peroxisome proliferator-activated receptor γ coactivator 1α (PGC-1α) is its auxiliary transcriptional activator. Acyl-CoA oxidase 1 (ACOX1) is the first rate-limiting enzyme for fatty acid β oxidation. Fatty acid binding protein 1 (FABP1) is highly expressed in liver, and can bind fatty acid, heme and other molecules to reduce their toxicity and damage. Up-regulating the expression level of these genes helps to improve the body's metabolism, and their agonists are an important class of anti-metabolic drugs. After the compound of the present application (1 μM) and the control drug gemfibrozil (1 μM) were incubated with human liver cancer cells HepG2 for 6 hours, real-time fluorescent quantitative PCR method was used to determine the relative expression of mRNA of related genes in the cells.
The company which synthesized the primers was Suzhou Hongxun Biotechnology Co., Ltd. Tranzol reagent (Tranzol total RNA extraction reagent, TransGen Biotech) was used to extract total RNA from tissues. 5× All-In-One RT MasterMix reverse transcription kit (Abcam, USA) and real-time quantitative PCR Master Mix (Aidlab Biotechnologies Co., Ltd) were used. Bio-Rad CFX Connect™ Real-Time PCR Detection System for qPCR was used, and 2^−ΔΔCT method was used for data analysis. The expression level of mRNA in the normal control group was set to 1, and the relative expression level of mRNA in the administration group was calculated, so as to confirm whether the active compound affected the PPAR pathway, thereby further regulating lipid metabolism.

phosphorylated IRS-1 = experiment: Phosphorylated IRS-1 level by Western blotting in HepG2; format: cell-based, human; settings: 1 μM, 24 hours, HepG2, Western blotting (FIG. 6C)
Excerpt: (§1) Carnitine palmitoyltransferase (CPT1α) is a rate-limiting enzyme of fatty acid oxidation. When the body or tissues are lacking in energy, CPT1α catalyzes the entry of fatty acids into mitochondria for […], and at the same time, CPT1α is also involved in the regulation of fatty acid-induced insulin resistance and inflammation. Protein kinase B/glycogen synthase kinase 3β (AKT/GSK3β) signaling pathway and insulin receptor substrate 1 (IRS-1) are key signaling pathways that regulate glucose metabolism in response to insulin signal. Therefore, by determining the effects of compounds on the CPT1α protein level and the AKT, GSK3β and IRS-1 protein phosphorylation levels, it is possible to evaluate the regulatory effects of the compounds on glycolipid metabolism.
(§2) After human liver cancer cells HepG2 were incubated with the compound of the present application or the control drug at 1 μM for 24 hours, the CPT1α protein level and the AKT, GSK3β and IRS-1 phosphorylated protein levels in the cells were determined by Western blotting; after gray-scale scanning by using Image J15.0.1, normalization was performed by using β-tubulin protein level as internal control, and the quantitative analysis results were shown in FIG. 6.

CPT1α = CPT1α protein level by Western blotting in HepG2; format: cell-based, human; settings: 1 μM, 24 hours, HepG2, Western blotting (FIG. 6A)
Excerpt: as §1, §2

phosphorylated GSK3β = experiment: Phosphorylated GSK3β level by Western blotting in HepG2; format: cell-based, human; settings: 1 μM, 24 hours, HepG2, Western blotting (FIG. 6B)
Excerpt: as §1, §2

db/db mice = experiment: Diabetes mellitus model (db/db mice); format: in vivo, mouse; settings: for blood glucose level: 50 mg/kg intragastric once a day for 28 days (FIG. 7); for AHDL (high density lipoprotein) / ALDL (low density lipoprotein) / ALT / AST / BUN / CHOL (total cholesterol) / CK / CREA / TGL (triglycerides) / fat content in the liver (Oil red O and H.E. staining): intragastric once a day for 28 days; for AHDL (high density lipoprotein) / ALDL (low density lipoprotein) / ALT / AST / BUN / CHOL (total cholesterol) / CK / CREA / TGL (triglycerides): 50 mg/kg (pioglitazone 6 mg/kg); for fat content in the liver (Oil red O and H.E. staining): 50 mg/kg (pioglitazone 6 mg/kg) (FIGS. 8A-8B)
Excerpt: Animal model: C57BL/KsJ-leprdb/leprdb diabetic (db/db) mice were widely used as animal models of type 2 diabetes mellitus, in which spontaneous mutations of leptin receptor (Leptin receptor, Lepr) caused extreme obesity, polyphagia, diabetes and polyuria. In this experiment, db/db mice (purchased from the Department of Animals, Health Science Center of Peking University) were selected. In the experiment, 28 db/db mice were used, and the animals with blood glucose of about 7-13 mmol/L were selected. […] Intragastric administration was adopted with an administration volume of 10 ml/kg. […] The administration was performed once a day for 28 consecutive days. From the day of oral administration, the physiological changes of the animals were observed every day. Blood glucose was measured every 3 days (Roche blood glucose meter) and blood glucose difference (Δ) was calculated by the following formula: blood glucose difference (Δ)=the blood glucose of the day—the initial blood glucose (the initial blood glucose difference was zero). For mice in each experimental group, blood was collected, serum was separated, and liver was taken for wet-weight measurement after necropsy; liver tissue was taken and fixed for pathological examination, H.E. staining and oil red O staining (Wuhan Zishan Biotechnology Co., Ltd.) were performed, and mouse liver lesions were observed under light microscope; routine examination of blood was performed by Animal Laboratory Department, Health Science Center of Peking University to measure the following indexes: white blood cell count (WBC), red blood cell count (RBC), lymphocyte count (LY), platelet (PLT) and so on; biochemical laboratory examination of blood was performed by Laboratory Medicine, Third Hospital, Peking University to measure the following indexes: triglycerides (TG), total cholesterol (T-CHO), high-density lipoprotein cholesterol (HDL-C), low-density lipoprotein cholesterol (LDL-C) and so on.

[2] = Metabolism of BJMU-2 by the liver
[3] = 50 mg/kg intragastric once a day for 28 days

Compound: Cc1cc(OCCCC(C)(C)C(=O)O)c(C)cc1F [BJMU-3, 5-(4-fluoro-2,5-dimethylphenoxy)-2,2-dimethylpentanoic acid]
NO generation induced by LPS [1]: could inhibit NO generation
PPARγ mRNA expression (PPARγ): significantly induced PPARγ mRNA expression
phosphorylation level of IRS-1 (phosphorylated IRS-1): significantly increased the phosphorylation level of IRS-1

BUN (db/db mice): 7.23 ± 1.19 mmol/L
CK (db/db mice): 1790.75 ± 388.38 U/L
CREA (db/db mice): 10.13 ± 5.25 µmol/L
Compound: Cc1cc(OCCCC(C)(C)C(=O)O)c(C)cc1Br [BJMU-2, 5-(4-bromo-2,5-dimethylphenoxy)-2,2-dimethylpentanoic acid]
NO generation induced by LPS [1]: could inhibit NO generation
PPARγ mRNA expression (PPARγ): significantly induced PPARγ mRNA expression
CPT1α protein level (CPT1α): significantly increased CPT1α protein level
phosphorylation level of GSK3β (phosphorylated GSK3β): significantly increased the phosphorylation level of GSK3β
phosphorylation level of IRS-1 (phosphorylated IRS-1): significantly increased the phosphorylation level of IRS-1
activity of lowering triglycerides (in words) (db/db mice; [3]): had an activity of lowering triglycerides better than gemfibrozil
total cholesterol content in blood (in words) (db/db mice; [3]): could reduce the total cholesterol content in the blood
blood glucose level (db/db mice): could significantly reduce the blood glucose level
AHDL (high density lipoprotein) (db/db mice): 1.59 ± 0.13 mmol/L
ALDL (low density lipoprotein) (db/db mice): 0.33 ± 0.09 mmol/L
ALT (db/db mice): 187.75 ± 62.07 U/L
AST (db/db mice): 210.75 ± 56.97 U/L
CHOL (total cholesterol) (db/db mice): 3.06 ± 0.63 mmol/L
TGL (triglycerides) (db/db mice): 1.44 ± 0.42 mmol/L
fat content in the liver (Oil red O and H.E. staining) (db/db mice): could significantly reduce the fat content in the liver
metabolism by the liver [2]: could be metabolized by the liver to produce metabolites BJMU-415 and 502

BUN (db/db mice): 9.56 ± 1.57 mmol/L
CK (db/db mice): 1037 ± 523.17 U/L
CREA (db/db mice): 16 ± 10.46 µmol/L
Compound: Cc1ccc(C)c(OCCCC(C)(C)C(=O)O)c1 [gemfibrozil, Gemfibrozil, reference compound]
NO generation induced by LPS [1]: did not have an activity of inhibiting NO generation
total cholesterol content in blood (in words) (db/db mice; [3]): did not show the activity of lowering total cholesterol in blood
blood glucose level (db/db mice): did not show obvious hypoglycemic activity
AHDL (high density lipoprotein) (db/db mice): 1.64 ± 0.28 mmol/L
ALDL (low density lipoprotein) (db/db mice): 0.35 ± 0.02 mmol/L
ALT (db/db mice): 172.25 ± 123^ U/L
AST (db/db mice): 225 ± 132.19 U/L
CHOL (total cholesterol) (db/db mice): 3.37 ± 0.36 mmol/L
TGL (triglycerides) (db/db mice): 2.09 ± 0.95 mmol/L
fat content in the liver (Oil red O and H.E. staining) (db/db mice): neither gemfibrozil nor pioglitazone showed the above activity

Compound: Cc1cc(OCCCC(C)(C)C(=O)O)c(C)cc1Cl [BJMU-1, 5-(4-chloro-2,5-dimethylphenoxy)-2,2-dimethylpentanoic acid]
NO generation induced by LPS [1]: could inhibit NO generation
CPT1α protein level (CPT1α): significantly increased CPT1α protein level

Source: patent US12365643B2, “Phenoxy carboxylic acid compounds and medical uses thereof” (QINGDAO RISING BIOTECHNOLOGY CO., LTD, priority 2018, dated 2025)
